The text below walks through data of US9423396B2, “Bodipy structure fluorescence probes for diverse biological applications” (National University of Singapore, priority 2011, dated 2016).

The data set in a line: Spectroscopic measurements (absorption, emission, quantum yield, extinction coefficient). It is filed as physicochemical. The conditions noted are these: BDNCA library; for Abs: absorption; for Flu-Abs: difference emission minus absorption; for ε: extinction coefficient, in M-1 cm-1 (unit assumed); for Flu: fluorescence emission.

As for `COc1ccc(/C=C/C2=[N+]3C(=C(c4ccc(NC(=O)CCl)cc4)c4cccn4[B-]3(F)F)C(C)=C2)cc1OC` [BDNCA-62], the “Qunt. Yield” value was found to be 0.08, the Abs amounted to 570 nm, the Flu-Abs was 48 and the ε was 38,169. The Flu is reported as 618.
In the same order, the values of `CCOc1ccc(/C=C/C2=[N+]3C(=C(c4ccc(NC(=O)CCl)cc4)c4cccn4[B-]3(F)F)C(C)=C2)cc1OC` [BDNCA-63] are 0.07, 572 nm, 51, 35,149 and 623.
Turning to `CC1=CC(/C=C/c2ccc(-c3ccccc3)s2)=[N+]2C1=C(c1ccc(NC(=O)CCl)cc1)c1cccn1[B-]2(F)F` [BDNCA-65], the “Qunt. Yield” value is 0.04, the Abs worked out at 593 nm, the Flu-Abs is 37 and the ε is on record as 30,755. The compound also gave a Flu of 630.
Turning to `CC1=CC(/C=C/c2c(C)c(C)c(C)c(C)c2C)=[N+]2C1=C(c1ccc(NC(=O)CCl)cc1)c1cccn1[B-]2(F)F` [BDNCA-67], the “Qunt. Yield” value came to 0.12, the Abs is 542 nm, the Flu-Abs came to 40 and the ε is on record as 36,522. In addition, the Flu worked out at 582.
In the same order, the values of `CC1=CC(/C=C/c2ccc(OC(F)(F)F)cc2)=[N+]2C1=C(c1ccc(NC(=O)CCl)cc1)c1cccn1[B-]2(F)F` [BDNCA-68] are 0.05, 553 nm, 20, 27,735 and 573.
In the case of `CC1=CC(/C=C/c2ccc(/C=C/c3ccccc3)cc2)=[N+]2C1=C(c1ccc(NC(=O)CCl)cc1)c1cccn1[B-]2(F)F` [BDNCA-69], the “Qunt. Yield” value is 0.09, the Abs came to 577 nm, the Flu-Abs was determined as 33 and the ε is on record as 40,641. The compound also showed a Flu of 610.
`COc1ccc2c(OC)ccc(/C=C/C3=[N+]4C(=C(c5ccc(NC(=O)CCl)cc5)c5cccn5[B-]4(F)F)C(C)=C3)c2c1` [BDNCA-70]: the “Qunt. Yield” value is 0.04, the Abs was found to be 587 nm, the Flu-Abs came out at 90 and the ε is on record as 29,931. In addition, the Flu is recorded as 677.
For `CC1=CC(/C=C/c2ccoc2)=[N+]2C1=C(c1ccc(NC(=O)CCl)cc1)c1cccn1[B-]2(F)F` [BDNCA-71], the “Qunt. Yield” value was found to be 0.05, the Abs is 550 nm, the Flu-Abs is recorded as 20 and the ε is 43,661. For the same compound, the Flu was determined as 570.
As to `CC1=CC(/C=C/c2nccn2C)=[N+]2C1=C(c1ccc(NC(=O)CCl)cc1)c1cccn1[B-]2(F)F` [BDNCA-72], the “Qunt. Yield” value is on record as 0.02, the Abs was 573 nm, the Flu-Abs stood at 45 and the ε was 17,849. The compound also displayed a Flu of 618.
As to `CC1=CC(/C=C/c2cc(Br)ccc2O)=[N+]2C1=C(c1ccc(NC(=O)CCl)cc1)c1cccn1[B-]2(F)F` [BDNCA-73], the “Qunt. Yield” value amounted to 0.04, the Abs turned out to be 564 nm, the Flu-Abs is on record as 21 and the ε is on record as 27,185. This compound returned a Flu of 585.
In the same order, the values of `CC1=CC(/C=C/c2ccc(OC(C)(C)C)cc2)=[N+]2C1=C(c1ccc(NC(=O)CCl)cc1)c1cccn1[B-]2(F)F` [BDNCA-75] are 0.09, 562 nm, 38, 35,973 and 600.
Consider `CCCc1ccc(/C=C/C2=[N+]3C(=C(c4ccc(NC(=O)CCl)cc4)c4cccn4[B-]3(F)F)C(C)=C2)cc1` [BDNCA-77], for which the “Qunt. Yield” value came to 0.09, the Abs was determined as 559 nm, the Flu-Abs is 22 and the ε is 45,034. For the same compound, the Flu came to 581.
The matching figures for `COc1cc(OC)c(/C=C/C2=[N+]3C(=C(c4ccc(NC(=O)CCl)cc4)c4cccn4[B-]3(F)F)C(C)=C2)c(OC)c1` [BDNCA-82]: 0.04, 582 nm, 50, 18,398 and 632.
Regarding `COc1cccc(/C=C/C2=[N+]3C(=C(c4ccc(NC(=O)CCl)cc4)c4cccn4[B-]3(F)F)C(C)=C2)c1OC` [BDNCA-83], the “Qunt. Yield” value is recorded as 0.12, the Abs stood at 557 nm, the Flu-Abs amounted to 20 and the ε is recorded as 40,366. The compound further registered a Flu of 577.
On to `CC1=CC(/C=C/C=C(c2ccccc2)c2ccccc2)=[N+]2C1=C(c1ccc(NC(=O)CCl)cc1)c1cccn1[B-]2(F)F` [BDNCA-85], for which the “Qunt. Yield” value is reported as 0.08, the Abs worked out at 583 nm, the Flu-Abs is 31 and the ε was 49,977. The Flu was determined as 614.
Take `CC1=CC(/C=C/c2ccc(-c3ccccn3)cc2)=[N+]2C1=C(c1ccc(NC(=O)CCl)cc1)c1cccn1[B-]2(F)F` [BDNCA-88]: the “Qunt. Yield” value was 0.11, the Abs worked out at 566 nm, the Flu-Abs turned out to be 18 and the ε is 27,185. The compound also came in with a Flu of 584.
`Cc1cc(/C=C/c2ccc3c4c(cccc24)CC3)n2c1C(c1ccc(NC(=O)CCl)cc1)=C1C=CC=[N+]1[B-]2(F)F` [BDNCA-89]: the “Qunt. Yield” value came to 0.08, the Abs was 580 nm, the Flu-Abs is 54 and the ε is recorded as 33,501. In addition, the Flu stood at 634.
Take `CC1=CC(/C=C/c2ccc(OCc3ccccc3)cc2)=[N+]2C1=C(c1ccc(NC(=O)CCl)cc1)c1cccn1[B-]2(F)F` [BDNCA-90]: the “Qunt. Yield” value was 0.04, the Abs is 563 nm, the Flu-Abs was 30 and the ε was 20,046. For the same compound, the Flu is recorded as 593.
`Cc1cc(/C=C/c2ccc(N(C)CCO)cc2)n2c1C(c1ccc(NC(=O)CCl)cc1)=C1C=CC=[N+]1[B-]2(F)F` [BDNCA-91]: the “Qunt. Yield” value is recorded as “weak”, the Abs worked out at 559 nm, the ε is reported as 34,050 and the Flu result is reported as “weak”.
In the case of `COc1cc(/C=C/C2=[N+]3C(=C(c4ccc(NC(=O)CCl)cc4)c4cccn4[B-]3(F)F)C(C)=C2)cc(OC)c1OC(C)=O` [BDNCA-92], the “Qunt. Yield” value turned out to be 0.01, the Abs was found to be 555 nm, the Flu-Abs is reported as 24 and the ε was 15,652. The same compound displayed a Flu of 579.
As for `CC1=CC(/C=C/c2cn(C)c3ccccc23)=[N+]2C1=C(c1ccc(NC(=O)CCl)cc1)c1cccn1[B-]2(F)F` [BDNCA-94], the “Qunt. Yield” value came out at 0.02, the Abs was determined as 548 nm, the Flu-Abs is 114 and the ε was 23,890. The compound further showed a Flu of 662.
Turning to `COc1cc(/C=C/C2=[N+]3C(=C(c4ccc(NC(=O)CCl)cc4)c4cccn4[B-]3(F)F)C(C)=C2)cc(OC)c1O` [BDNCA-95], the “Qunt. Yield” value was found to be 0.01, the Abs was 574 nm, the Flu-Abs is 6 and the ε is reported as 31,579. The same compound returned a Flu of 580.
Regarding `CC1=CC(/C=C/C=C/c2ccc(N(C)C)cc2)=[N+]2C1=C(c1ccc(NC(=O)CCl)cc1)c1cccn1[B-]2(F)F` [BDNCA-96], the “Qunt. Yield” value was “weak”, the Abs stood at 622 nm, the ε is 50,801 and the Flu result is recorded as “weak”.
Take `CC1=CC(/C=C/c2ccc(Br)s2)=[N+]2C1=C(c1ccc(NC(=O)CCl)cc1)c1cccn1[B-]2(F)F` [BDNCA-100]: the “Qunt. Yield” value was 0.10, the Abs is 574 nm, the Flu-Abs was 23 and the ε is recorded as 48,879. The same compound came in with a Flu of 597.
With `CC1=CC(/C=C/c2ccc(Oc3ccccc3)cc2)=[N+]2C1=C(c1ccc(NC(=O)CCl)cc1)c1cccn1[B-]2(F)F` [BDNCA-101], the “Qunt. Yield” value was found to be 0.20, the Abs came to 562 nm, the Flu-Abs came to 27 and the ε is on record as 89,245. This compound registered a Flu of 589.
`CC1=CC(/C=C/c2ccc3ccc4cccc5ccc2c3c45)=[N+]2C1=C(c1ccc(NC(=O)CCl)cc1)c1cccn1[B-]2(F)F` [BDNCA-103]: the “Qunt. Yield” value was 0.04, the Abs was 598 nm, the Flu-Abs came out at 82 and the ε is given as 28,558. The Flu stood at 680.
In the case of `CC1=CC(/C=C/c2cccc(O)c2)=[N+]2C1=C(c1ccc(NC(=O)CCl)cc1)c1cccn1[B-]2(F)F` [BDNCA-105], the “Qunt. Yield” value is 0.06, the Abs stood at 556 nm, the Flu-Abs is 19 and the ε is given as 38,719. Also, the Flu is reported as 575.
On to `CCN(CC)c1ccc(/C=C/C2=[N+]3C(=C(c4ccc(NC(=O)CCl)cc4)c4cccn4[B-]3(F)F)C(C)=C2)cc1` [BDNCA-107], for which the “Qunt. Yield” value is “weak”, the Abs was determined as 624 nm, the ε is reported as 56,018 and the Flu entry is recorded as “weak”.
As to `CC1=CC(/C=C/c2c(C)cc(C)cc2C)=[N+]2C1=C(c1ccc(NC(=O)CCl)cc1)c1cccn1[B-]2(F)F` [BDNCA-108], the “Qunt. Yield” value turned out to be 0.10, the Abs amounted to 549 nm, the Flu-Abs was found to be 33 and the ε is given as 39,542. This compound also showed a Flu of 582.
Regarding `COc1ccc(/C=C/c2cc(C)c3n2[B-](F)(F)[N+]2=CC=CC2=C3c2ccc(NC(=O)CCl)cc2)cc1` [BDNCA-110], the “Qunt. Yield” value stood at 0.16, the Abs was determined as 566 nm, the Flu-Abs is on record as 30 and the ε is listed as 56,568. The compound further yielded a Flu of 596.
